Consider 53 molecules from patent US12448373B2, “Azetidinyl-acetamides as CXCR7 inhibitors” (CHEMOCENTRYX, INC., priority 2021, dated 2025).

What is called IC50 is the midpoint of a concentration-inhibition curve. Higher therefore signals weaker potency in that assay.

For the test, the target named is T1, CXCR7 (Homo sapiens, UniProt P25106).
T1 construct: expressed in transfected cells; host or cells: CHO cells (CHO-CXCR7), transgenes maintained with Hygromycin B and G418
T1 sequence (P25106 whole entry): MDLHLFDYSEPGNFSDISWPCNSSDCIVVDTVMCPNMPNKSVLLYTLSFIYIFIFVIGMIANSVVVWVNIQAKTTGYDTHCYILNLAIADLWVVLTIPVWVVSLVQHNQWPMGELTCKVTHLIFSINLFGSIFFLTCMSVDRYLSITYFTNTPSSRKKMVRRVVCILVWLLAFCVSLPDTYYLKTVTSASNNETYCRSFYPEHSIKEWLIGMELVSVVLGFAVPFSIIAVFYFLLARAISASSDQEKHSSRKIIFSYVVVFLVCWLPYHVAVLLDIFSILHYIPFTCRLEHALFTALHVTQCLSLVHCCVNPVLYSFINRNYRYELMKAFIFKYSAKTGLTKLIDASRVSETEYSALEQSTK
In words: CXCR7 β-arrestin recruitment assay in CHO-CXCR7 cells (ProLink/EA β-galactosidase complementation), induced by human SDF-1a. The class given is cell-based. The settings on record: assay buffer, SDF-1a at EC50 concentration. The procedure, abridged: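 CHO cells co-expressing ProLink-tagged CXCR7 and β-arrestin-EA were pre-plated overnight, then given compound and human SDF-1α at its same-day EC50. After 1.5 h at 37 °C, complemented β-galactosidase was read from 0.4 mM 3-carboxyumbelliferyl β-D-galactopyranoside (30 min, 37 °C; ex 360/em 465 nm). IC50 by 3-parameter fit.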
In general terms: Arrestin recruitment assays detect the binding of arrestin to an activated receptor.
`Cc1ccc(C(C)(C)NC(=O)CC2(NC(=O)c3cc(-c4ccc(F)cc4F)on3)CN([C@H]3CC[C@](C)(O)CC3)C2)cc1` [Example 1.243]: the IC50 lay within 100 to 1000 nM.

Molecule `Cc1cccc(C(C)(C)NC(=O)CC2(NC(=O)c3cc(-c4ccc(F)cc4F)on3)CN(CC(C)C)C2)n1` [Example 1.026] returned an IC50 of 5 to 100 nM.

As to `CC(C)(NC(=O)CC1(NC(=O)c2cc(-c3ccc(F)cc3F)sn2)CN([C@H]2CC[C@@](C)(O)CC2)C1)c1cccc(Cl)c1` [Example 1.043], the IC50 was in the range of 100 to 1000 nM. For `COc1cc(C)nc(C(C)(C)NC(=O)CC2(NC(=O)c3cc(-c4ccc(F)cc4F)on3)CN([C@H]3CC[C@@](C)(O)CC3)C2)n1` [Example 1.167] the value was less than 5 nM; for `Cc1cc(C(C)(C)NC(=O)CC2(NC(=O)c3cc(-c4ccc(F)cc4F)on3)CN(CC(C)C)C2)ccn1` [Example 1.122], 5 to 100 nM.

In turn, `CC(C)(NC(=O)CC1(NC(=O)c2cc(-c3ccc(F)cc3F)on2)CN([C@H]2CC[C@](C)(O)CC2)C1)c1ccnc(C2CC2)c1` [Example 1.147] had an IC50 of 5 to 100 nM.

`CC(C)(NC(=O)CC1(NC(=O)c2cn(-c3ccc(F)cc3)nn2)CN([C@H]2CC[C@](C)(O)CC2)C1)c1ccccc1` [Example 1.084] displayed an IC50 of 100 to 1000 nM.

`CC(C)(NC(=O)CC1(NC(=O)c2cc(-c3ccc(F)cc3F)on2)CN(C2CCCC2)C1)c1ccccn1` [Example 1.094] had an IC50 of 5 to 100 nM. For `COc1cc(F)cc(C(C)(C)NC(=O)CC2(NC(=O)c3cc(-c4ccc(F)cc4F)on3)CN([C@H]3CC[C@@](C)(O)CC3)C2)c1` [Example 1.169] the value was less than 5 nM; for `Cc1cc(C#N)cc(C(C)(C)NC(=O)CC2(NC(=O)c3nnc(-c4ccc(F)cc4F)s3)CN([C@H]3CC[C@](C)(O)CC3)C2)n1` [Example 1.352], 5 to 100 nM.

Regarding `Cc1cc(C)nc(C(C)(C)NC(=O)CC2(NC(=O)c3cn(-c4ccc(F)cc4F)nn3)CN(C3CCCCC3)C2)n1` [Example 1.071], the IC50 lay in the range of 5 to 100 nM.

For the molecule `CC1(C)CCC(N2CC(CC(=O)NC(C)(C)c3cc(Cl)cc(Cl)c3)(NC(=O)c3cc(-c4ccc(F)cc4F)on3)C2)CC1` [Example 1.105], the IC50 was less than 5 nM. For `CC(C)(NC(=O)CC1(NC(=O)c2cc(-c3ccc(F)cc3F)on2)CN(CC2CC2)C1)c1cccc(Cl)c1` [Example 1.113] the value was 5 to 100 nM; for `CC(C)(NC(=O)CC1(NC(=O)c2ncc(-c3ccc(F)cc3F)s2)CN([C@H]2CC[C@](C)(O)CC2)C1)c1cccc(Cl)c1` [Example 1.046], 5 to 100 nM. For `C[C@]1(O)CC[C@@H](N2CC(CC(=O)NC3(c4ccccn4)CC3)(NC(=O)c3cc(-c4ccc(F)cc4F)on3)C2)CC1` [Example 1.190] the value was 5 to 100 nM; for `CC(C)(NC(=O)CC1(NC(=O)c2cc(-c3ccc(F)cc3F)on2)CN([C@H]2CC[C@](C)(O)CC2)C1)c1ccc(F)cc1` [Example 1.260], 5 to 100 nM. For `CC(C)(NC(=O)CC1(NC(=O)c2nnc(-c3ccc(F)cc3F)s2)CN([C@H]2CC[C@](C)(O)CC2)C1)c1cc(F)cc(F)c1` [Example 1.028] the value was 5 to 100 nM; for `Cc1cc(C)nc(C(C)(C)NC(=O)CC2(NC(=O)c3cc(-c4ccc(F)cc4F)on3)CN(C3CC(C)OC(C)C3)C2)n1` (centres unmarked) [Example 1.354], 100 to 1000 nM; for `CC(C)(NC(=O)CC1(NC(=O)c2cn(-c3ccc(F)cc3F)nn2)CN([C@H]2CC[C@](C)(O)CC2)C1)c1ccccc1` [Example 1.081], 5 to 100 nM.

As for `CC(C)(NC(=O)CC1(NC(=O)c2cc(-c3ccc(F)cc3F)no2)CN([C@H]2CC[C@@](C)(O)CC2)C1)c1cccc(Cl)c1` [Example 1.047], the IC50 lay in the range of 5 to 100 nM. For `CCc1cc(C(C)(C)NC(=O)CC2(NC(=O)c3cc(-c4ccc(F)cc4F)on3)CN([C@H]3CC[C@@](C)(O)CC3)C2)ccn1` [Example 1.148] the value was 5 to 100 nM.

For `CC(C)(NC(=O)CC1(NC(=O)c2cc(-c3ccc(F)cc3F)on2)CN(CC2CCOCC2)C1)c1ccccn1` [Example 1.222], the IC50 lay within 100 to 1000 nM. For `CC(C)(NC(=O)CC1(NC(=O)c2cc(-c3ccc(F)cc3F)on2)CN(C2CCCCC2)C1)c1ccc(Cl)nc1` [Example 1.284] the value was 5 to 100 nM. For `COc1cc(C(C)(C)NC(=O)CC2(NC(=O)c3cc(-c4ccc(F)cc4F)on3)CN([C@H]3CC[C@@](C)(O)CC3)C2)ccc1F` [Example 1.176] the value was 5 to 100 nM; for `CCOc1cccc(C(C)(C)NC(=O)CC2(NC(=O)c3cc(-c4ccc(F)cc4F)on3)CN([C@H]3CC[C@](C)(O)CC3)C2)c1` [Example 1.187], 5 to 100 nM; for `CC[C@@H](NC(=O)CC1(NC(=O)c2cc(-c3ccc(F)cc3F)on2)CN(C2CCCCC2)C1)c1ccccc1` [Example 1.307], 5 to 100 nM. On to `Cc1cc(C(C)(C)NC(=O)CC2(NC(=O)c3cc(-c4ccc(F)cc4F)on3)CN([C@H]3CC[C@](C)(O)CC3)C2)ccn1` [Example 1.211], for which the IC50 is less than 5 nM.

In turn, `Cc1ccc(C(C)(C)NC(=O)CC2(NC(=O)c3cc(-c4ccc(F)cc4F)on3)CN([C@H]3CC[C@@](C)(O)CC3)C2)cc1` [Example 1.242] showed an IC50 of 100 to 1000 nM.

With `CC(C)(NC(=O)CC1(NC(=O)c2cc(-c3ccc(F)cc3F)on2)CN([C@H]2CC[C@](C)(O)CC2)C1)c1ccccc1Cl` [Example 1.219], the IC50 is less than 5 nM. For `COc1cc(C(C)(C)NC(=O)CC2(NC(=O)c3cc(-c4ccc(F)cc4F)on3)CN([C@H]3CC[C@](C)(O)CC3)C2)ccc1F` [Example 1.177] the value was 5 to 100 nM; for `CC(C)(NC(=O)CC1(NC(=O)c2cc(-c3ccc(F)cc3F)on2)CN([C@H]2CC[C@](C)(O)CC2)C1)c1ccncc1` [Example 1.182], less than 5 nM; for `CC(C)(NC(=O)CC1(NC(=O)c2nnc(-c3ccc(F)cc3F)s2)CN([C@H]2CC[C@@](C)(O)CC2)C1)c1cccc(Cl)c1` [Example 1.064], less than 5 nM.

`O=C(CC1(NC(=O)c2cc(-c3ccc(F)cc3F)on2)CN(C2CCCCC2)C1)N[C@@H](C(=O)O)c1ccccc1` [Example 1.282] yielded an IC50 of 1000 to 20000 nM. For `CC(C)(NC(=O)CC1(NC(=O)c2cc(-c3ccc(F)cc3F)on2)CN(C2CCCCC2)C1)c1ncccn1` [Example 1.270] the value was 5 to 100 nM; for `COc1cc(F)cc(C(C)(C)NC(=O)CC2(NC(=O)c3cc(-c4ccc(F)cc4F)on3)CN([C@H]3CC[C@](C)(O)CC3)C2)c1` [Example 1.170], 5 to 100 nM. With `CC(C)(NC(=O)CC1(NC(=O)c2cc(-c3ccc(F)cc3F)on2)CN(C2CCC3(CC2)COC3)C1)c1ccc(F)cc1F` [Example 1.254], the IC50 was 100 to 1000 nM. For `CC(C)(NC(=O)CC1(NC(=O)c2cc(-c3ccc(F)cc3F)on2)CN([C@H]2CC[C@@](C)(O)CC2)C1)c1cccc(C2CC2)c1` [Example 1.143] the value was 5 to 100 nM; for `C[C@]1(O)CC[C@H](N2CC(CC(=O)NCc3ccccn3)(NC(=O)c3cc(-c4ccc(F)cc4F)on3)C2)CC1` [Example 1.099], 1000 to 20000 nM. For `Cc1cc(Cl)cc(C(C)(C)NC(=O)CC2(NC(=O)c3nnc(-c4ccc(F)cc4F)s3)CN([C@H]3CC[C@](C)(O)CC3)C2)c1` [Example 1.348] the value was 5 to 100 nM. `CC(C)(O)CN1CC(CC(=O)NC(C)(C)c2cccc(C#N)c2)(NC(=O)c2cc(-c3ccc(F)cc3F)on2)C1` [Example 1.145] registered an IC50 of 5 to 100 nM.

On to `CC(C)(NC(=O)CC1(NC(=O)c2cc(-c3ccc(F)cc3F)on2)CN([C@H]2CC[C@@](C)(O)CC2)C1)c1ccncc1` [Example 1.180], for which the IC50 was less than 5 nM. For `Cc1cc(C(C)C)cc(C(C)(C)NC(=O)CC2(NC(=O)c3cc(-c4ccc(F)cc4F)on3)CN([C@H]3CC[C@](C)(O)CC3)C2)n1` [Example 1.344] the value was 100 to 1000 nM; for `CCOc1cccc(C(C)(C)NC(=O)CC2(NC(=O)c3cc(-c4ccc(F)cc4F)on3)CN([C@H]3CC[C@@](C)(O)CC3)C2)c1` [Example 1.186], 5 to 100 nM; for `CC(C)(NC(=O)CC1(NC(=O)c2cc(-c3ccc(F)cc3F)on2)CN(C2CCC3(CC2)COC3)C1)c1cccc(F)c1` [Example 1.234], 5 to 100 nM. For `Cc1cc(C)nc(C(C)(C)NC(=O)CC2(NC(=O)c3nnc(-c4ccc(F)cc4F)s3)CN([C@H]3CC[C@](C)(O)CC3)C2)c1` [Example 1.031] the value was less than 5 nM; for `COc1cccc(C(C)(C)NC(=O)CC2(NC(=O)c3cc(-c4ccc(F)cc4F)on3)CN([C@H]3CC[C@](C)(O)CC3)C2)c1F` [Example 1.196], 100 to 1000 nM; for `CC(C)(NC(=O)CC1(NC(=O)c2cc(-c3ccc(F)cc3F)on2)CN([C@H]2CC[C@](C)(O)CC2)C1)c1ccc(F)cc1F` [Example 1.287], 5 to 100 nM.

In turn, `CC(C)(NC(=O)CC1(NC(=O)c2cc(-c3ccc(F)cc3F)on2)CN([C@H]2CC[C@@](C)(O)CC2)C1)c1ccc(Cl)cc1` [Example 1.249] gave an IC50 of 5 to 100 nM.

Molecule `CC(C)(NC(=O)CC1(NC(=O)c2cc(-c3ccc(F)cc3F)on2)CN(C2CCC3(CC2)COC3)C1)c1cc(Cl)cc(Cl)c1` [Example 1.092] yielded an IC50 of 5 to 100 nM. Molecule `CC(C)(NC(=O)CC1(NC(=O)c2nnc(-c3ccc(F)cc3F)s2)CN([C@H]2CC[C@](C)(O)CC2)C1)c1cc(F)ccc1F` [Example 1.024] yielded an IC50 of 5 to 100 nM. `Cc1cc(C)nc(C(C)(C)NC(=O)CC2(NC(=O)c3nnc(-c4ccc(F)cc4F)o3)CN([C@H]3CC[C@](C)(O)CC3)C2)n1` [Example 1.055] gave an IC50 of 100 to 1000 nM.

`Cc1cccc(C(C)(C)NC(=O)CC2(NC(=O)c3nnc(-c4ccc(F)cc4F)s3)CN([C@H]3CC[C@](C)(O)CC3)C2)n1` [Example 1.032] gave an IC50 of less than 5 nM. `CC1(CN2CC(CC(=O)NC(C)(C)c3cccc(C(F)(F)F)n3)(NC(=O)c3cc(-c4ccc(F)cc4F)on3)C2)COC1` [Example 1.130] yielded an IC50 of 1000 to 20000 nM.
